What was measured:
SN12C = experiment: Growth inhibition of human SN12C cells assessed as cell growth at 0.01 uM incubated for 48 hrs by sulforhodamine B assay relative to control; assay type: functional; settings: read-out: Activity
NCI-H226 = experiment: Growth inhibition of human NCI-H226 cells assessed as cell growth at 100 uM incubated for 48 hrs by sulforhodamine B assay relative to control; assay type: functional; settings: NCI-H226, 48 h, read-out: Activity
T47D = experiment: Growth inhibition of human T47D cells assessed as cell growth at 0.1 uM incubated for 48 hrs by sulforhodamine B assay relative to control; assay type: functional; settings: read-out: Activity
SNB-19 [1] = experiment: Growth inhibition of human SNB19 cells assessed as cell growth at 0.1 uM incubated for 48 hrs by sulforhodamine B assay relative to control; assay type: functional; settings: SNB-19, 48 h, read-out: Activity
RPMI-8226 = experiment: Growth inhibition of human RPMI8226 cells assessed as cell growth at 0.1 uM incubated for 48 hrs by sulforhodamine B assay relative to control; assay type: functional; settings: RPMI-8226, 48 h, read-out: Activity
U-251 = experiment: Growth inhibition of human U251 cells assessed as cell growth at 100 uM incubated for 48 hrs by sulforhodamine B assay relative to control; assay type: functional; settings: U-251, 48 h, read-out: Activity
UACC-257 = experiment: Growth inhibition of human UACC257 cells incubated for 48 hrs by sulforhodamine B assay; assay type: functional, cell-based; settings: UACC-257, 48 h
CCRF-CEM = experiment: Growth inhibition of human CCRF-CEM cells assessed as cell growth at 100 uM incubated for 48 hrs by sulforhodamine B assay relative to control; assay type: functional; settings: read-out: Activity
Hs-578T = experiment: Growth inhibition of human Hs578T cells assessed as cell growth at 1 uM incubated for 48 hrs by sulforhodamine B assay relative to control; assay type: functional; settings: read-out: Activity
RXF 393 [2] = experiment: Growth inhibition of human RXF393 cells assessed as cell growth at 0.1 uM incubated for 48 hrs by sulforhodamine B assay relative to control; assay type: functional; settings: RXF 393, 48 h, read-out: Activity
SK-OV-3 = experiment: Growth inhibition of human SKOV3 cells assessed as cell growth at 0.1 uM incubated for 48 hrs by sulforhodamine B assay relative to control; assay type: functional; settings: SK-OV-3, 48 h, read-out: Activity
SF-268 = experiment: Growth inhibition of human SF268 cells assessed as cell growth at 100 uM incubated for 48 hrs by sulforhodamine B assay relative to control; assay type: functional; settings: SF-268, 48 h, read-out: Activity
SNB-19 [3] = experiment: Growth inhibition of human SNB19 cells incubated for 48 hrs by sulforhodamine B assay; assay type: functional, cell-based; settings: SNB-19, 48 h
UO-31 = experiment: Growth inhibition of human UO31 cells incubated for 48 hrs by sulforhodamine B assay; assay type: functional, cell-based; settings: UO-31, 48 h
ACHN = experiment: Growth inhibition of human ACHN cells assessed as cell growth at 100 uM incubated for 48 hrs by sulforhodamine B assay relative to control; assay type: functional; settings: read-out: Activity
NCI/ADR-RES = experiment: Growth inhibition of human NCI/ADR-RES cells assessed as cell growth at 0.1 uM incubated for 48 hrs by sulforhodamine B assay relative to control; assay type: functional; settings: read-out: Activity
UACC-62 = experiment: Growth inhibition of human UACC62 cells assessed as cell growth at 0.01 uM incubated for 48 hrs by sulforhodamine B assay relative to control; assay type: functional; settings: UACC-62, 48 h, read-out: Activity
SNB-75 = experiment: Growth inhibition of human SNB75 cells assessed as cell growth at 1 uM incubated for 48 hrs by sulforhodamine B assay relative to control; assay type: functional; settings: SNB-75, 48 h, read-out: Activity
NCI-H322M = experiment: Growth inhibition of human NCI-H322M cells assessed as cell growth at 0.1 uM incubated for 48 hrs by sulforhodamine B assay relative to control; assay type: functional; settings: read-out: Activity
NCI-H522 = experiment: Growth inhibition of human NCI-H522 cells assessed as cell growth at 0.1 uM incubated for 48 hrs by sulforhodamine B assay relative to control; assay type: functional; settings: NCI-H522, 48 h, read-out: Activity
HCC 2998 = experiment: Growth inhibition of human HCC2998 cells incubated for 48 hrs by sulforhodamine B assay; assay type: functional, cell-based; settings: HCC 2998, 48 h
HL-60(TB) = experiment: Growth inhibition of human HL-60(TB) cells incubated for 48 hrs by sulforhodamine B assay; assay type: functional, cell-based; settings: HL-60, 48 h
A549 = experiment: Growth inhibition of human A549/ATCC cells assessed as cell growth at 100 uM incubated for 48 hrs by sulforhodamine B assay relative to control; assay type: functional; settings: A549, 48 h, read-out: Activity
RXF 393 [4] = experiment: Growth inhibition of human RXF393 cells incubated for 48 hrs by sulforhodamine B assay; assay type: functional, cell-based; settings: RXF 393, 48 h
BT-549 = experiment: Growth inhibition of human BT549 cells assessed as cell growth at 100 uM incubated for 48 hrs by sulforhodamine B assay relative to control; assay type: functional; settings: BT-549, 48 h, read-out: Activity
SF-539 = experiment: Growth inhibition of human SF539 cells assessed as cell growth at 0.1 uM incubated for 48 hrs by sulforhodamine B assay relative to control; assay type: functional; settings: SF-539, 48 h, read-out: Activity
KM12 = experiment: Growth inhibition of human KM12 cells assessed as cell growth at 0.1 uM incubated for 48 hrs by sulforhodamine B assay relative to control; assay type: functional; settings: KM12, 48 h, read-out: Activity
SK-MEL-2 = experiment: Growth inhibition of human SK-MEL-2 cells assessed as cell growth at 0.1 uM incubated for 48 hrs by sulforhodamine B assay relative to control; assay type: functional; settings: SK-MEL-2, 48 h, read-out: Activity
HCT-116 = experiment: Growth inhibition of human HCT116 cells assessed as cell growth at 0.1 uM incubated for 48 hrs by sulforhodamine B assay relative to control; assay type: functional; settings: HCT-116, 48 h, read-out: Activity
[5] = read-out: LC50 (the source's name)
[6] = read-out: pLC50 (the source's name) (converted)

With `COc1cc(Cl)cc(-c2nn(-c3cccc(NC(=O)Nc4ccc(Cl)c(C(F)(F)F)c4)c3)cc2-c2ccncc2)c1` the growth at 0.01 µM (SN12C) was 98%, the growth at 100 µM (NCI-H226) was -29% and the growth at 0.1 µM (T47D) was 103%. It also gave a growth at 0.1 µM (SNB-19 [1]) of 95%, a growth at 0.1 µM (RPMI-8226) of 100% and a growth at 100 µM (U-251) of -100%. It also gave a GI50 (UACC-257; read-out: GI50) of 1.59 µM, a CC50 (UACC-257; [5]) of 1.55 µM and a TGI (UACC-257; read-out: TGI) of 49.3 µM. For the same compound, the GI50 (UACC-257; read-out: pGI50 (converted)) was 1.91 µM, the CC50 (UACC-257; [6]) was 18.6 µM and the TGI (UACC-257; read-out: pTGI (converted)) was 2.95 µM. The growth at 100 µM (CCRF-CEM) was -29%, the growth at 1 µM (Hs-578T) was 89% and the growth at 0.1 µM (RXF 393 [2]) was 96%. It also gave a growth at 0.1 µM (SK-OV-3) of 100%, a growth at 100 µM (SF-268) of -58% and a GI50 (SNB-19 [3]; read-out: GI50) of 2.93 µM. For the same compound, the CC50 (SNB-19 [3]; [5]) was greater than 100 µM, the TGI (SNB-19 [3]; read-out: TGI) was 17.5 µM and the GI50 (SNB-19 [3]; read-out: pGI50 (converted)) was 1.17 µM. It also gave a CC50 (SNB-19 [3]; [6]) greater than 100 µM, a TGI (SNB-19 [3]; read-out: pTGI (converted)) of 17.8 µM and an IC50 (UO-31) of 1.66 µM. The GI50 (UO-31; read-out: GI50) was 1.56 µM, the CC50 (UO-31; [5]) was 95.4 µM and the TGI (UO-31; read-out: TGI) was 10.9 µM. It also gave a GI50 (UO-31; read-out: pGI50 (converted)) of 1.66 µM, a CC50 (UO-31; [6]) of 97.7 µM and a TGI (UO-31; read-out: pTGI (converted)) of 11 µM. The growth at 100 µM (ACHN) was -31%, the growth at 0.1 µM (NCI/ADR-RES) was 69% and the growth at 0.01 µM (UACC-62) was 95%. It also gave a growth at 1 µM (SNB-75) of 68%, a growth at 0.1 µM (NCI-H322M) of 98% and a growth at 0.1 µM (NCI-H522) of 77%. For the same compound, the GI50 (HCC 2998; read-out: GI50) was 2.91 µM, the CC50 (HCC 2998; [5]) was 4.41 µM and the TGI (HCC 2998; read-out: TGI) was 90.2 µM. For the same compound, the GI50 (HCC 2998; read-out: pGI50 (converted)) was 2.88 µM, the CC50 (HCC 2998; [6]) was 43.7 µM and the TGI (HCC 2998; read-out: pTGI (converted)) was 9.12 µM. For the same compound, the GI50 (HL-60(TB); read-out: GI50) was 1.55 µM, the LC50 (HL-60(TB); read-out: LC50) was greater than 100 µM and the TGI (HL-60(TB); read-out: TGI) was 55.3 µM. It also gave a GI50 (HL-60(TB); read-out: pGI50 (converted)) of 1.66 µM, an LC50 (HL-60(TB); read-out: pLC50 (converted)) greater than 100 µM and a TGI (HL-60(TB); read-out: pTGI (converted)) of 5.5 µM. For the same compound, the growth at 100 µM (A549) was -76%, the LC50 (RXF 393 [4]) was 28.2 µM and the GI50 (RXF 393 [4]; read-out: GI50) was 1.71 µM. For the same compound, the TGI (RXF 393 [4]; read-out: TGI) was 44.2 µM, the GI50 (RXF 393 [4]; read-out: pGI50 (converted)) was 1.7 µM and the TGI (RXF 393 [4]; read-out: pTGI (converted)) was 9.33 µM. For the same compound, the growth at 100 µM (BT-549) was -68%, the growth at 0.1 µM (SF-539) was 91% and the growth at 0.1 µM (KM12) was 98%. For the same compound, the growth at 0.1 µM (SK-MEL-2) was 52% and the growth at 0.1 µM (HCT-116) was 97%.
